Consider 43 molecules from US11098063B2, “Diazabicyclic substituted imidazopyrimidines and their use for the treatment of breathing disorders” (Bayer Aktiengesellschaft, priority 2017, dated 2021).

Assay [1] deals with human TASK-1 (Homo sapiens (Human), UniProt O14649). The assay can be described thus: Inhibition of recombinant TASK-1 in stably transfected CHO cells (voltage-sensitive dye, KCl depolarization). In kind it is cell-based. As to conditions: depolarization by 40 mM potassium chloride. As for the experimental part:
(§1) B-2. Inhibition of Recombinant TASK-1 and TASK-3 In Vitro
(§2) The investigations on the inhibition of the recombinant TASK-1 and TASK-3 channels were conducted using stably transfected CHO cells. The compounds according to the invention were tested in this case by application of 40 mM potassium chloride in the presence of a voltage-sensitive dye according to the method described in detail in the following references [Whiteaker et al., Validation of FLIPR membrane potential dye for high-throughput screening of potassium channel modulators, J. Biomol. Screen. 6 (5), 305-312 (2001); Molecular Devices FLIPR Application Note: Measuring membrane potential using the FLIPR® membrane potential assay kit on Fluorometric Imaging Plate Reader (FLIPR®) systems, http://www.moleculardevices.com/reagents-supplies/assay-kits/ion-channels/flipr-membrane-potential-assay-kits]. The activity of the test substances was determined as their ability to inhibit a depolarization induced in the recombinant cells by 40 mM potassium chloride. The concentration which can block half of this depolarization is referred to as IC50.

Assay [2] has as its target human TASK-3 (Homo sapiens (Human), UniProt Q9NPC2). The assay can be described thus: Inhibition of recombinant TASK-3 in stably transfected CHO cells (voltage-sensitive dye, KCl depolarization). The note with it: depolarization by 40 mM potassium chloride. The format is cell-based. On the procedure: as §1, §2

Chain of human TASK-3 (Q9NPC2 whole entry): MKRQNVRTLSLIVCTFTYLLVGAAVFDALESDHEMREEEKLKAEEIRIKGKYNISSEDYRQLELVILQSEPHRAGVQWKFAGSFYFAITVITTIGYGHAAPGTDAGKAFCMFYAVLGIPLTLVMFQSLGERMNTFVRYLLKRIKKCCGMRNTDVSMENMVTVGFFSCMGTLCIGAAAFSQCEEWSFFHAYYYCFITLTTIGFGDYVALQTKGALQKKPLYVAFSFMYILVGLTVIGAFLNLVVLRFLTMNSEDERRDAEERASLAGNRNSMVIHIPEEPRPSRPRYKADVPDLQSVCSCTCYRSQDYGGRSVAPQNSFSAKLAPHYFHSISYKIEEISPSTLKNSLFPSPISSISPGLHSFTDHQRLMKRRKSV
Chain of human TASK-1 (O14649 whole entry): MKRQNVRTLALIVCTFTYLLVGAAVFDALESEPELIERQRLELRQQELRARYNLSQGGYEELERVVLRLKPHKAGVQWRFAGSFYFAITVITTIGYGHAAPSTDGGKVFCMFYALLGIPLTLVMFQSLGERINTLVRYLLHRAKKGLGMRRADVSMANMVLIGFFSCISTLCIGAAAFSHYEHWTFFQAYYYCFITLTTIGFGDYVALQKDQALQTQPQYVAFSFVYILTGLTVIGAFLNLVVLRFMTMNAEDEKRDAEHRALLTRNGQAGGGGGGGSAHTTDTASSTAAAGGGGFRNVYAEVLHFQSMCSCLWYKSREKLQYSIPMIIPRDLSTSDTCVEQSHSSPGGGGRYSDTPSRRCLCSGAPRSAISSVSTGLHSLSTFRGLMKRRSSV

On to `COc1ccc(Cl)c(C(=O)N2CC3CCC2CN3Cc2c(-c3ccc(Cl)cc3)nc3ncccn23)n1` (centres unmarked) [Example 45], for which the IC50 in assay [1] was 1.8 µM; in assay [2], 0.12 µM.

Regarding `O=C(c1ncoc1C1CC1)N1C2COCC1CN(Cc1c(-c3ccc(Cl)cc3)nc3ncccn13)C2` [Example 46], the IC50 in assay [1] was determined as 7.6 µM; in assay [2], 0.14 µM.

With `O=C(c1coc(C2CC2)n1)N1C2CCC1CN(Cc1c(-c3ccc(Cl)cc3)nc3ncccn13)C2` [Example 47], the figures for the IC50 in assay [1] and in assay [2] were 2.8 µM and 0.11 µM, respectively.

`Cc1ocnc1C(=O)N1C2CCC1CN(Cc1c(-c3ccc(Cl)cc3)nc3ncccn13)C2` [Example 48]: the half-inhibitory concentration (IC50) stood at 0.4 µM in assay [1] and 0.023 µM in assay [2].

As for `CC(C)c1ocnc1C(=O)N1C2CCC1CN(Cc1c(-c3ccc(Cl)cc3)nc3ncccn13)C2` [Example 49], the IC50 in assay [1] worked out at 0.26 µM; in assay [2] it was 0.012 µM.

Regarding `Cc1nc(C)c(C(=O)N2C3CCC2CN(Cc2c(-c4ccc(Cl)cc4)nc4ncccn24)C3)o1` [Example 50], the values for the concentration for half-maximal inhibition (IC50) in assay [1] and in assay [2] were 3.3 µM and 0.43 µM, respectively.

On to `Cc1sc(C(=O)N2C3CCC2CN(Cc2c(-c4ccc(Cl)cc4)nc4ncccn24)C3)nc1Br` [Example 52], for which the concentration for half-maximal inhibition (IC50) in assay [1] was 1.3 µM; in assay [2], 0.052 µM.

As for `O=C(c1ncoc1C1CC1)N1C2CCC1CN(Cc1c(-c3ccc(Cl)cc3)nc3ncccn13)C2` [Example 53], the IC50 in assay [1] amounted to 0.62 µM; in assay [2], 0.019 µM.

As to `CC(C)c1nc(C(=O)N2C3CCC2CN(Cc2c(-c4ccc(Cl)cc4)nc4ncccn24)C3)cs1` [Example 54], the 50% inhibitory concentration (IC50) in assay [1] stood at 0.86 µM; in assay [2], 0.013 µM.

Turning to `O=C(c1cncs1)N1C2CCC1CN(Cc1c(-c3ccc(Cl)cc3)nc3ncccn13)C2` [Example 55], the figures for the 50% inhibitory concentration (IC50) in assay [1] and in assay [2] were 2.9 µM and 0.17 µM, respectively.

Regarding `Cc1nc(C(=O)N2C3CCC2CN(Cc2c(-c4ccc(Cl)cc4)nc4ncccn24)C3)c(C)o1` [Example 56], the values for the IC50 in assay [1] and in assay [2] were 5.6 µM and 0.054 µM, respectively.

For `COc1nc(C(F)(F)F)c(C(=O)N2C3CCC2CN(Cc2c(-c4ccc(Cl)cc4)nc4ncccn24)C3)s1` [Example 57], the IC50 amounted to 6.4 µM in assay [1] and 0.057 µM in assay [2].

Turning to `O=C(c1csc(C(F)(F)F)n1)N1C2CCC1CN(Cc1c(-c3ccc(Cl)cc3)nc3ncccn13)C2` [Example 58], the IC50 in assay [1] amounted to 1.6 µM; in assay [2], 0.017 µM.

As to `Cc1scnc1C(=O)N1C2CCC1CN(Cc1c(-c3ccc(Cl)cc3)nc3ncccn13)C2` [Example 59], the half-maximal inhibitory concentration (IC50) in assay [1] came to 3 µM; in assay [2] it was 0.039 µM.

With `O=C(c1nc(C(F)(F)F)cs1)N1C2CCC1CN(Cc1c(-c3ccc(Cl)cc3)nc3ncccn13)C2` [Example 60], the results for the 50% inhibitory concentration (IC50) in assay [1] and in assay [2] were 0.67 µM and 0.43 µM, respectively.

As for `O=C(c1cscn1)N1C2CCC1CN(Cc1c(-c3ccc(Cl)cc3)nc3ncccn13)C2` [Example 61], the half-inhibitory concentration (IC50) in assay [1] was determined as 3 µM; in assay [2] it was 0.64 µM.

With `CNc1cccc(C(=O)N2C3CCC2CN(Cc2c(-c4ccc(C(C)C)cc4)nc4ncccn24)C3)n1` [Example 62], the half-maximal inhibitory concentration (IC50) was 6.9 µM in assay [1] and 0.07 µM in assay [2].

Turning to `COc1cccc(C(=O)N2C3CCC2CN(Cc2c(-c4ccc(C(C)C)cc4)nc4ncccn24)C3)n1` [Example 63], the IC50 in assay [1] is 1.7 µM; in assay [2], 0.015 µM.

Consider `CC(C)c1ccc(-c2nc3ncccn3c2CN2CC3CCC(C2)N3C(=O)c2ccccc2F)cc1` [Example 64], for which the concentration for half-maximal inhibition (IC50) in assay [1] came to 1.1 µM; in assay [2], 0.0084 µM.

With `COc1cccc(C(=O)N2C3COCC2CN(Cc2c(-c4ccc(C(C)C)cc4)nc4ncccn24)C3)n1` [Example 66], the IC50 turned out to be 3.7 µM in assay [1] and 0.02 µM in assay [2].

Regarding `COc1ccc(Cl)c(C(=O)N2C3COCC2CN(Cc2c(-c4ccc(C(C)C)cc4)nc4ncccn24)C3)n1` [Example 67], the results for the concentration for half-maximal inhibition (IC50) in assay [1] and in assay [2] were 1.2 µM and 0.017 µM, respectively.

Regarding `CC(C)c1ccc(-c2nc3ncccn3c2CN2CC3COCC(C2)N3C(=O)c2ccccc2F)cc1` [Example 68], the half-maximal inhibitory concentration (IC50) in assay [1] turned out to be 9.4 µM; in assay [2], 0.087 µM.

On to `COc1ccc(Cl)c(C(=O)N2CC3CCC2CN3Cc2c(-c3ccc(C(C)C)cc3)nc3ncccn23)n1` (centres unmarked) [Example 69], for which the half-maximal inhibitory concentration (IC50) in assay [1] worked out at 2.8 µM; in assay [2], 0.022 µM.

Regarding `CC(C)c1ccc(-c2nc3ncccn3c2CN2CC3CCC2CN3C(=O)c2ncoc2C2CC2)cc1` (centres unmarked) [Example 70], the concentration for half-maximal inhibition (IC50) is 1.9 µM in assay [1] and 0.02 µM in assay [2].

As for `COc1ccc(F)c(C(=O)N2CC3CCC2CN3Cc2c(-c3ccc(C(C)C)cc3)nc3ncccn23)n1` (centres unmarked) [Example 71], the results for the half-maximal inhibitory concentration (IC50) in assay [1] and in assay [2] were 14 µM and 0.11 µM, respectively.

As to `COc1ccc(F)c(C(=O)N2CC3CCC2CN3Cc2c(-c3ccc(C(C)C)cc3)nc3ncccn23)n1` (centres unmarked) [Example 72], the IC50 in assay [1] was 2.1 µM; in assay [2], 0.029 µM.

In the case of `COc1cccc(C(=O)N2CC3CCC2CN3Cc2c(-c3ccc(C(C)C)cc3)nc3ncccn23)n1` (centres unmarked) [Example 73], the 50% inhibitory concentration (IC50) amounted to 9.1 µM in assay [1] and 0.081 µM in assay [2].

`COc1cccc(C(=O)N2CC3CCC2CN3Cc2c(-c3ccc(C(C)C)cc3)nc3ncccn23)n1` (centres unmarked) [Example 74]: the figures for the 50% inhibitory concentration (IC50) in assay [1] and in assay [2] were 3.4 µM and 0.061 µM, respectively.

Consider `CC(C)c1ccc(-c2nc3ncccn3c2CN2CC3CCC2CN3C(=O)c2cccc(OC(F)F)n2)cc1` (centres unmarked) [Example 75], for which the half-inhibitory concentration (IC50) was found to be 3.8 µM in assay [1] and 0.051 µM in assay [2].

As to `CC(C)c1ccc(-c2nc3ncccn3c2CN2CC3CCC2CN3C(=O)c2cccc(OC(F)F)n2)cc1` (centres unmarked) [Example 76], the IC50 in assay [1] is 13 µM; in assay [2], 0.056 µM.

Turning to `COc1ccc(C)c(C(=O)N2CC3CCC2CN3Cc2c(-c3ccc(C(C)C)cc3)nc3ncccn23)n1` (centres unmarked) [Example 77], the figures for the IC50 in assay [1] and in assay [2] were 0.72 µM and 0.0049 µM, respectively.

Take `COc1ccc(C)c(C(=O)N2CC3CCC2CN3Cc2c(-c3ccc(C(C)C)cc3)nc3ncccn23)n1` (centres unmarked) [Example 78]: the values for the IC50 in assay [1] and in assay [2] were 3.8 µM and 0.024 µM, respectively.

Consider `COc1ccc(F)c(C(=O)N2CC3CCC2CN3Cc2c(-c3ccc(Br)cc3)nc3ncccn23)n1` (centres unmarked) [Example 81], for which the values for the IC50 in assay [1] and in assay [2] were 0.82 µM and 0.021 µM, respectively.

Consider `COc1ccc(F)c(C(=O)N2C3CCC2CN(Cc2c(-c4ccc(Br)cc4)nc4ncccn24)C3)n1` [Example 82], for which the IC50 in assay [1] amounted to 0.67 µM; in assay [2], 0.037 µM.

`O=C(c1ccccc1F)N1C2CCC1CN(Cc1c(-c3ccc(Br)cc3)nc3ncccn13)C2` [Example 83]: the IC50 in assay [1] amounted to 0.25 µM; in assay [2], 0.014 µM.

As for `O=C(C1CCCC1)N1C2CCC1CN(Cc1c(-c3ccc(Br)cc3)nc3ncccn13)C2` [Example 84], the IC50 in assay [1] was determined as 0.093 µM; in assay [2], 0.0046 µM.

Regarding `O=C(Nc1ccc(F)cc1F)N1C2CCC1CN(Cc1c(-c3ccc(Cl)cc3)nc3ncccn13)C2` [Example 85, 3-{[2-(4-Chlorophenyl)imidazo[1,2-a]pyrimidin-3-yl]methyl}-N-(2,4-difluorophenyl)-3,8-diazabicyclo[3.2.1]octane-8-carboxamide], the 50% inhibitory concentration (IC50) in assay [1] was 30 µM; in assay [2], 1 µM.

Consider `CC(C)NC(=O)N1C2CCC1CN(Cc1c(-c3ccc(Cl)cc3)nc3ncccn13)C2` [Example 86, 3-{[2-(4-chlorophenyl)imidazo[1,2-a]pyrimidin-3-yl]methyl}-N-isopropyl-3,8-diazabicyclo[3.2.1]octane-8-carboxamide], for which the IC50 came out at 7.7 µM in assay [1] and 0.43 µM in assay [2].

Consider `O=C(Nc1cccc(Cl)c1)N1C2CCC1CN(Cc1c(-c3ccc(Cl)cc3)nc3ncccn13)C2` [Example 89, N-(3-chlorophenyl)-3-{[2-(4-chlorophenyl)imidazo[1,2-a]pyrimidin-3-yl]methyl}-3,8-diazabicyclo[3.2.1]octane-8-carboxamide], for which the IC50 in assay [1] was 30 µM; in assay [2] it was 0.85 µM.

For the molecule `O=C(Nc1c(Cl)cccc1Cl)N1C2CCC1CN(Cc1c(-c3ccc(Cl)cc3)nc3ncccn13)C2` [Example 91, 3-{[2-(4-chlorophenyl)imidazo[1,2-a]pyrimidin-3-yl]methyl}-N-(2,6-dichlorophenyl)-3,8-diazabicyclo[3.2.1]octane-8-carboxamide], the IC50 turned out to be 20 µM in assay [1] and 0.41 µM in assay [2].

In the case of `Cc1cccc(C)c1NC(=O)N1C2CCC1CN(Cc1c(-c3ccc(Cl)cc3)nc3ncccn13)C2` [Example 92, 3-{[2-(4-chlorophenyl)imidazo[1,2-a]pyrimidin-3-yl]methyl}-N-(2,6-dimethylphenyl)-3,8-diazabicyclo[3.2.1]octane-8-carboxamide], the half-maximal inhibitory concentration (IC50) in assay [1] was determined as 15 µM; in assay [2], 0.27 µM.

Take `O=C(Nc1ccccc1F)N1C2CCC1CN(Cc1c(-c3ccc(Cl)cc3)nc3ncccn13)C2` [Example 93, 3-{[2-(4-chlorophenyl)imidazo[1,2-a]pyrimidin-3-yl]methyl}-N-(2-fluorophenyl)-3,8-diazabicyclo[3.2.1]octane-8-carboxamide]: the values for the half-maximal inhibitory concentration (IC50) in assay [1] and in assay [2] were 12 µM and 0.26 µM, respectively.

Consider `O=C(Nc1cccc(Cl)c1Cl)N1C2CCC1CN(Cc1c(-c3ccc(Cl)cc3)nc3ncccn13)C2` [Example 94, 3-{[2-(4-chlorophenyl)imidazo[1,2-a]pyrimidin-3-yl]methyl}-N-(2,3-dichlorophenyl)-3,8-diazabicyclo[3.2.1]octane-8-carboxamide], for which the IC50 in assay [1] is 30 µM; in assay [2] it was 0.16 µM.

Usually IC50 stands for the concentration that inhibits the measured activity by half.
